Results as given in the supplement of paper PMC11781733.
Where a name gives a salt, the structure may show the parent alone.

What was measured:
Conditions in all cases: exposure time: 15 min to 3 h acute
Dugesia japonica [1] = experiment: C-shape incidence (% planarians (vehicle-normalised)); higher = higher incidence or increase relative to vehicle control
Summary of the method: (§1)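 Single D. japonica planarians, fasted 5–7 days, sat in 200 μL per well of sealed 48-well plates and were screened 15 minutes–3 hours after exposure to at least 5 concentrations. Shapes were scored by hand and blind. The reported value is the incidence of a particular shape, or of any abnormal shape, ×100, set against in-plate vehicle controls with negatives taken as 0.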

Dugesia japonica [2] = experiment: any abnormal body shape incidence (% planarians (vehicle-normalised)); higher = higher incidence or increase relative to vehicle control
Summary of the method: as §1

Dugesia japonica [3] = experiment: total locomotor bursts minus vehicle (bursts difference vs vehicle); higher = higher incidence or increase relative to vehicle control
Summary of the method: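 Planarians of the species Dugesia japonica, fasted beforehand, received half- or quarter-log concentration series in 0.5% DMSO or water, one animal per well of a sealed 48-well plate holding 200 μL solution. They were tested 15 min–3 h after exposure in technical triplicates totalling n = 24. Each animal's count of total locomotor bursts, an unstimulated behaviour obtained by image-based object tracking, had the plate vehicle-control median subtracted without ×100 scaling. The figure given is the median normalised response, with crawled-out worms excluded.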

Dugesia japonica [4] = experiment: corkscrew incidence (% planarians (vehicle-normalised)); higher = higher incidence or increase relative to vehicle control
Summary of the method: as §1

Dugesia japonica [5] = experiment: contracted body shape incidence (% planarians (vehicle-normalised)); higher = higher incidence or increase relative to vehicle control
Summary of the method: as §1

Dugesia japonica [6] = experiment: pharynx extrusion incidence (% planarians (vehicle-normalised)); higher = higher incidence or increase relative to vehicle control
Summary of the method: (§2)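 Pharynx extrusion was scored manually and blind as a body-shape category in intact, fasted Dugesia japonica, one per well of a 48-well plate in 200 μL. Worms were tested 15 min to 3 h after exposure in 0.5% DMSO or water vehicle. Eight worms per concentration per plate were run in technical triplicate (n = 24). The incidence rate ×100 was normalised to in-plate vehicle controls, negatives were set to 0, and worms that crawled out were excluded.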

Dugesia japonica [7] = experiment: speed first 30 s blue light vs vehicle (% change vs vehicle); higher = higher incidence or increase relative to vehicle control
Summary of the method: (§3)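 For each worm, crawling speed under dark or blue-light conditions was tracked automatically and expressed against the median of that plate's vehicle worms, and the reported value is the median percent change. The worms were intact, fasted Dugesia japonica held one per well in 200 μL in a 48-well plate, exposed in 0.5% DMSO or water vehicle and tested from 15 min to 3 h afterwards. Eight were used per concentration per plate across technical triplicate (n = 24), excluding any that crawled out.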

Dugesia japonica [8] = experiment: resting fraction in dark vs vehicle (difference in fraction x100 vs vehicle); higher = higher incidence or increase relative to vehicle control
Summary of the method: (§4)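 The resting fraction, in the dark or under blue light, comes from automated tracking of intact, fasted Dugesia japonica. Worms sat singly in wells of a 48-well plate in 200 μL and were tested 15 min to 3 h after exposure in 0.5% DMSO or water vehicle. The plate's vehicle median was subtracted from each worm and the difference multiplied by 100, then the median was reported after excluding worms that crawled out.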

Dugesia japonica [9] = experiment: speed in dark vs vehicle (% change vs vehicle); higher = higher incidence or increase relative to vehicle control
Summary of the method: as §3

Dugesia japonica [10] = experiment: loss of phototaxis incidence (% planarians (vehicle-normalised)); higher = higher incidence or increase relative to vehicle control
Summary of the method: as §2, with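 “Loss of phototaxis” for “Pharynx extrusion”, “scored” for “scored manually and blind”, “yes/no endpoint” for “body-shape category”, “vehicle, using automated object tracking.” for “vehicle.”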

Dugesia japonica [11] = experiment: loss of heat-induced scrunching incidence (% planarians (vehicle-normalised)); higher = higher incidence or increase relative to vehicle control
Summary of the method: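 Planarians of the species D. japonica, fasted for 5–7 days, were placed singly in wells of sealed 48-well plates in 200 μL and exposed to at least 5 concentrations, 24 worms per concentration in technical triplicates. Scrunching in response to a noxious heat stimulus was tested within 15 minutes–3 hours, and any worm that crawled out was excluded. The reported figure is the incidence of non-scrunching worms, normalised to vehicle controls on the same plate. This incidence is given ×100, with negatives set to 0.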

Dugesia japonica [12] = experiment: stickiness incidence (% planarians (vehicle-normalised)); higher = higher incidence or increase relative to vehicle control
Summary of the method: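 Stickiness was scored as a yes-or-no outcome in fasted Dugesia japonica planarians, and incidence was normalised to the vehicle incidence on the same plate. Each worm sat alone in a well of a sealed 48-well plate holding 200 μL of solution and was tested 15 min–3 h after exposure to half- or quarter-log concentration series, with 0.5% DMSO or water as vehicle. Technical triplicates were pooled (n = 24), negative values were set to 0, values were multiplied by 100, and worms that crawled out were excluded.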

Dugesia japonica [13] = experiment: speed second 30 s blue light vs vehicle (% change vs vehicle); higher = higher incidence or increase relative to vehicle control
Summary of the method: as §3

Dugesia japonica [14] = experiment: anxiety (time in outer well region) vs vehicle (% change vs vehicle); higher = higher incidence or increase relative to vehicle control
Summary of the method: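 The value is the median normalized time that planarians spent in the outer portion of the well. D. japonica worms, fasted 5–7 days, were held singly in 200 μL per well of sealed 48-well plates at at least 5 concentrations (n = 24 per concentration) and screened within 15 minutes–3 hours. Each worm's response was divided by, or reduced by, the plate vehicle median and then multiplied by 100, and worms that crawled out were left out.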

Dugesia japonica [15] = experiment: crawl-out incidence (% planarians); higher = higher incidence or increase relative to vehicle control
Dugesia japonica [16] = experiment: noxious heat displacement strength vs vehicle (% change vs vehicle); higher = higher incidence or increase relative to vehicle control
Summary of the method: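 Values are the median percent change in displacement strength under noxious heat, scored by automated object tracking in the scrunching assay with intact, fasted Dugesia japonica. Each worm was placed alone in a well of a 48-well plate in 200 μL and tested 15 min to 3 h after exposure in 0.5% DMSO or water vehicle. Eight worms per concentration per plate were run in technical triplicate (n = 24), with each worm normalised to the plate's vehicle median and worms that crawled out excluded.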

Dugesia japonica [17] = experiment: hyperkinesis incidence (% planarians (vehicle-normalised)); higher = higher incidence or increase relative to vehicle control
Summary of the method: as §1

Dugesia japonica [18] = experiment: resting fraction in blue light vs vehicle (difference in fraction x100 vs vehicle); higher = higher incidence or increase relative to vehicle control
Summary of the method: as §4

Row | Structure (SMILES) | C-shape incidence (Dugesia japonica [1]) | any abnormal body shape incidence (Dugesia japonica [2]) | total locomotor bursts minus vehicle (Dugesia japonica [3]) | corkscrew incidence (Dugesia japonica [4]) | contracted body shape incidence (Dugesia japonica [5]) | pharynx extrusion incidence (Dugesia japonica [6]) | speed first 30 s blue light (Dugesia japonica [7]) | resting fraction in dark (Dugesia japonica [8]) | speed in dark (Dugesia japonica [9]) | loss of phototaxis incidence (Dugesia japonica [10]) | loss of heat-induced scrunching incidence (Dugesia japonica [11]) | stickiness incidence (Dugesia japonica [12]) | speed second 30 s blue light (Dugesia japonica [13]) | anxiety (Dugesia japonica [14]) | crawl-out incidence (Dugesia japonica [15]) | noxious heat displacement strength (Dugesia japonica [16]) | hyperkinesis incidence (Dugesia japonica [17]) | resting fraction in blue light (Dugesia japonica [18])
1 | CNCC[C@H](Oc1cccc2ccccc12)c1cccs1 [s-duloxetine] (10 µM) | 0 | 75 | -13 | 0 | 0 | 0 | 142 | -32.6 | 124 | 50 | 8.33 | ≤ 0 | 34.6 | -1.76 | 0 | -38 | 75 | -12.1
2 | O=C(CCCN1CCC(O)(c2ccc(Br)cc2)CC1)c1ccc(F)cc1 [bromperidol] (31.6 µM) | 4.35 | 73.9 | 0.5 | 21.7 | 30.4 | 0 | -69 | 43.3 | -41 | ≤ 0 | 52.2 | ≤ 0 | -63.1 | 20.6 | 8.33 | -36.2 | 69.6 | 37.3
3 | O=C(CCCN1CCC(O)(c2ccc(Cl)cc2)CC1)c1ccc(F)cc1 [haloperidol] (3.16 µM) | 0 | 9.52 | 4.5 | 4.76 | 4.76 | 0 | -68.4 | 16.5 | -38.5 | 31.8 | 9.09 | ≤ 0 | -58.4 | -3.6 | 8.33 | -30.8 | 0 | 12.2
4 | Cc1ncc2n1-c1ccc(Cl)cc1C(c1ccccc1F)=NC2 [midazolam] (56.2 µM) | 0 | 33.3 | 2.5 | 0 | 12.5 | 0 | -29.6 | 22.7 | -34 | ≤ 0 | ≤ 0 | 4.17 | -10.2 | 7.1 | 0 | -25.6 | 20.8 | 2.61
5 | CN1C(=O)CN=C(c2ccccc2)c2cc(Cl)ccc21 [diazepam] (10 µM) | 0 | 0 | -1 | 0 | 0 | 0 | 0.43 | -5.91 | 15.9 | 50 | 12.5 | 21.7 | -16.1 | 0.94 | 0 | -17.4 | 0 | 0.83
6 | CNCC[C@H](Oc1cccc2ccccc12)c1cccs1 [s-duloxetine] (31.6 µM) | 34.8 | 73.9 | 61 | 0 | 4.35 | 26.1 | -45.9 | -4.51 | -18.7 | 47.8 | 65.2 | ≤ 0 | -62.7 | -51.2 | 4.17 | -61.5 | 39.1 | 7.14
7 | CN1CCN(CCCN2c3ccccc3Sc3ccc(Cl)cc32)CC1 [prochloroperazine] (10 µM) | 12.5 | 37.5 | 12.5 | 0 | 4.17 | 0 | -81.4 | 38.3 | -74.9 | 50 | 66.7 | 4.17 | -85.8 | 21.9 | 25 | -55.5 | 25 | 52.9
8 | CN1CC(=O)N=C1NC(=O)Nc1cccc(Cl)c1 [fenobam] (100 µM) | 0 | 0 | 2 | 0 | 0 | 0 | -26.8 | 0 | -18.5 | ≤ 0 | 8.33 | ≤ 0 | -27 | -2.96 | 0 | -43 | 0 | 0.38
9 | Cc1cc2c(s1)Nc1ccccc1N=C2N1CCN(C)CC1 [olanzapine] (100 µM) | 13.6 | 77.3 | -2.75 | 18.2 | 27.3 | 0 | -93.9 | 79.9 | -67.8 | 7.14 | 68.2 | 27.3 | -91.1 | 18.3 | 41.7 | -50.1 | 45.5 | 76
10 | O=C1CC2(CCCC2)CC(=O)N1CCCCN1CCN(c2ncccn2)CC1 [buspirone] (31.6 µM) | 0 | 16.7 | 3.5 | 0 | 0 | 0 | -64.5 | 3.7 | -11.1 | 54.2 | 62.5 | 16.7 | -74.1 | 7.76 | 0 | -57 | 16.7 | 34.3
11 | O=C1CCc2ccc(OCCCCN3CCN(c4cccc(Cl)c4Cl)CC3)cc2N1 [aripiprazole] (10 µM) | 12.5 | 20.8 | 31 | 4.17 | 0 | 0 | -70.8 | 34.5 | -46.8 | 25 | 16.7 | ≤ 0 | -63.1 | -16.3 | 0 | -17.3 | 4.17 | 19.8
12 | CN(C)CCC[C@@]1(c2ccc(F)cc2)OCc2cc(C#N)ccc21 [escitalopram] (1000 µM) | 0 | 69.6 | 37.8 | 26.1 | 4.35 | 0 | -68.2 | 17.6 | -42.1 | 8.7 | 60.9 | 30.4 | -66.8 | 19.7 | 4.17 | -59 | 56.5 | 18.9
13 | CN(C)CCCC1(c2ccc(F)cc2)OCc2cc(C#N)ccc21 (stereo unspecified) [citalopram hydrobromide] (1000 µM) | 0 | 83.3 | 40.2 | 0 | 0 | 0 | -57.3 | 17.8 | -48.7 | 16.7 | 8.33 | ≤ 0 | -71.1 | 11.2 | 0 | -42.7 | 83.3 | 16.8
14 | CN(C)CCCN1c2ccccc2CCc2ccccc21 [imipramine] (1 µM) | 0 | 4.17 | 3 | 0 | 0 | 0 | -21.6 | 6.78 | -23.4 | ≤ 0 | ≤ 0 | ≤ 0 | -18.2 | -4.11 | 0 | -4.45 | 0 | 0.17
15 | CN(C)CCCC1(c2ccc(F)cc2)OCc2cc(C#N)ccc21 (stereo unspecified) [citalopram hydrobromide] (31.6 µM) | 0 | 16.7 | 1.25 | 0 | 0 | 0 | 6.16 | 1.41 | 3.2 | 16.7 | 33.3 | ≤ 0 | -6.94 | 4.85 | 0 | -16.4 | 16.7 | 0
16 | O=C(O)C(=O)O [oxalic acid] (316 µM) | 0 | 62.5 | 31.5 | 0 | 0 | 0 | -63.2 | 33 | -42.2 | 8.33 | ≤ 0 | 37.5 | -69 | -24.7 | 0 | -67.5 | 58.3 | 22.9
17 | CN1CCN(C2=Nc3cc(Cl)ccc3Nc3ccccc32)CC1 [clozapine] (3.16 µM) | 0 | 20.8 | 26.8 | 4.17 | 8.33 | 0 | -90.3 | 74.7 | -74 | 16.7 | 33.3 | 20.8 | -87.9 | -27.9 | 0 | -40.6 | 20.8 | 69.7
